One data set deals with Botrytis cinerea. In words: Botrytis test (bean)/protective. In kind it is in vivo. Conditions: protective spray, application rate 100 ppm, lesion size evaluated 2 days after inoculation. On the procedure:
[table] To prepare an expedient active compound preparation, 1 part by weight of active compound is mixed with the stated amounts of solvent and emulsifier, and the concentrate is diluted to the desired concentration with water. To test for protective activity, young plants are sprayed with the active compound preparation at the application rate stated. After the spray coating has dried on, 2 small agar blocks which sustain the growth of Botrytis cinerea are placed on each leaf. The inoculated plants are placed in a darkened chamber at approximately 20° C. and 100% relative atmospheric humidity. 2 days after the inoculation, the size of the lesions on the leaves is evaluated. 0% means an efficacy which corresponds to that of the control, while an efficacy of 100% means that no disease is observed.

The test system of another data set is Pyrenophora teres. In words: Pyrenophora teres test (barley)/protective. The data set is classed as in vivo. The conditions noted are these: protective spray, application rate 1000 ppm, evaluated 8 days after inoculation. On the procedure:
Pyrenophora teres Test (Barley)/Protective To prepare an expedient active compound preparation, 1 part by weight of active compound is mixed with the stated amounts of solvent and emulsifier, and the concentrate is diluted to the desired concentration with water. To test for protective activity, young plants are sprayed with the active compound preparation at the application rate stated. After the spray coating has dried on, the plants are sprayed with a conidial suspension of Pyrenophora teres. The plants remain in an incubation cabinet for 48 hours at 20° C. and 100% relative atmospheric humidity. The plants are then placed into a greenhouse at a temperature of approximately 20° C. and a relative atmospheric humidity of approximately 80%. The test is evaluated 8 days after the inoculation. 0% means an efficacy which corresponds to that of the control, while an efficacy of 100% means that no disease is observed.

A short description of data set [1]: logP determination by HPLC on reversed-phase column (C18), EEC Directive 79/831 Annex V.A8. The data set is classed as physicochemical. Conditions: pH 2.3, HPLC reversed-phase C18, 43° C., 0.1% aqueous phosphoric acid/acetonitrile. How it is done:
The logP values stated in the above tables and preparation examples are determined as described in EEC Directive 79/831 Annex V.A8 by means of HPLC (high performance liquid chromatography) on a reversed-phase column (C18). Temperature: 43° C. The determination is effected in the acidic range at pH 2.3 using 0.1% aqueous phosphoric acid and acetonitrile as eluents; linear gradient from 10% acetonitrile to 90% acetonitrile. The calibration is effected with unbranched alkan-2-ones (having 3 to 16 carbon atoms) whose logP values are known (determination of the logP values with reference to the retention times by linear interpolation between two successive alkanones).

A further data set has as its system Leptosphaeria nodorum. The data set is described as follows: Leptosphaeria nodorum test (wheat)/protective. In kind it is in vivo. The conditions noted are these: protective spray, application rate 1000 ppm, evaluated 10 days after inoculation. On the procedure: Leptosphaeria nodorum Test (Wheat)/Protective To prepare an expedient active compound preparation, 1 part by weight of active compound is mixed with the stated amounts of solvent and emulsifier, and the concentrate is diluted to the desired concentration with water. To test for protective activity, young plants are sprayed with the active compound preparation at the application rate stated. After the spray coating has dried on, the plants are sprayed with a spore suspension of Leptosphaeria nodorum. The plants remain in an incubation cabinet for 48 hours at 20° C. and 100% relative atmospheric humidity. The plants are then placed into a greenhouse at a temperature of approximately 15° C. and a relative atmospheric humidity of approximately 80%. The test is evaluated 10 days after the inoculation. 0% means an efficacy which corresponds to that of the control, while an efficacy of 100% means that no disease is observed.

The test system of data set [2] is Erysiphe graminis fsp. hordei. The data set is described as follows: Erysiphe test (barley)/protective. In kind it is in vivo. The conditions noted are these: protective spray, application rate 1000 ppm, evaluated 7 days after inoculation. On the procedure:
Erysiphe Test (Barley)/Protective To prepare an expedient active compound preparation, 1 part by weight of active compound is mixed with the stated amounts of solvent and emulsifier, and the concentrate is diluted to the desired concentration with water. To test for protective activity, young plants are sprayed with the active compound preparation at the application rate stated. After the spray coating has dried on, the plants are dusted with spores of Erysiphe graminis fsp. hordei. The plants are placed in a greenhouse at a temperature of approximately 20° C. and a relative atmospheric humidity of approximately 80% to favour the development of mildew pustules. The test is evaluated 7 days after the inoculation. 0% means an efficacy which corresponds to that of the control, while an efficacy of 100% means that no disease is observed.

Molecules are shown by their SMILES.

In the case of `Cn1cc(C(=O)Nc2ccc(F)cc2-c2ccc(Cl)c(F)c2)c(C(F)F)n1` [drawing 17], the Efficacy in % with Botrytis cinerea amounted to 100%.

The molecule `Cn1cc(C(=O)Nc2cc(F)ccc2-c2ccc(F)c(Cl)c2)c(C(F)F)n1` [drawing 18, reference compound] had an Efficacy in % in the data set on Pyrenophora teres of 93%.

For orientation: chromatographic logP means a lipophilicity value derived from retention on a column. A high value points to a more lipophilic compound. In the case of `Cc1ccc(-c2cc(F)ccc2NC(=O)c2cn(C)nc2C(F)F)cc1F` [N-(5,3′-difluoro-4′-methylbiphenyl-2-yl)-3-difluoromethyl-1-methyl-1H-pyrazole-4-carboxamide], the chromatographic logP in data set [1] amounted to 3.05.

The molecule `Cn1cc(C(=O)Nc2ccc(F)cc2-c2ccc(F)c(Cl)c2)c(C(F)F)n1` came in with an Efficacy in % in the data set with Botrytis cinerea of 87%.

The molecule `Cc1ccc(-c2cc(F)ccc2NC(=O)c2cn(C)nc2C(F)(F)F)cc1F` [N-(5,3′-difluoro-4′-methylbiphenyl-2-yl)-1-methyl-3-trifluoromethyl-1H-pyrazole-4-carboxamide] displayed a chromatographic logP in data set [1] of 3.27.

Molecule `Cn1cc(C(=O)Nc2cc(F)ccc2-c2ccc(F)c(Cl)c2)c(C(F)F)n1` [drawing 22, reference compound] showed an Efficacy in % in the data set on Leptosphaeria nodorum of 0%.

In the data set on Botrytis cinerea, `Cn1cc(C(=O)Nc2cc(F)ccc2-c2ccc(F)c(Cl)c2)c(C(F)F)n1` [drawing 15, reference compound] had an Efficacy in % of 52%.

In turn, `Cn1cc(C(=O)Nc2ccc(F)cc2-c2ccc(Cl)c(F)c2)c(C(F)F)n1` [drawing 19] displayed an Efficacy in % with Pyrenophora teres of 100%.

In the case of `Cn1cc(C(=O)Nc2ccc(F)cc2-c2ccc(Cl)c(F)c2)c(C(F)(F)F)n1` [N-(4′-chloro-5,3′-difluorobiphenyl-2-yl)-1-methyl-3-trifluoromethyl-1H-pyrazole-4-carboxamide], the chromatographic logP in data set [1] turned out to be 3.26.

`Cn1cc(C(=O)Nc2ccc(F)cc2-c2ccc(Cl)c(F)c2)c(C(F)F)n1` [drawing 23] showed an Efficacy in % with Leptosphaeria nodorum of 84%.

In data set [1], `Cc1ccc(-c2cc(F)ccc2N)cc1F` [Example (III-2), 5,3′-difluoro-4′-methylbiphenyl-2-ylamine] registered a chromatographic logP of 2.94.

Molecule `Cn1cc(C(=O)Nc2cc(F)ccc2-c2ccc(F)c(Cl)c2)c(C(F)F)n1` [drawing 20, reference compound] showed an Efficacy in % in data set [2] of 33%.

The molecule `Cn1cc(C(=O)Nc2ccc(F)cc2-c2ccc(Cl)c(F)c2)c(C(F)F)n1` [drawing 21] displayed an Efficacy in % in data set [2] of 78%.

In data set [1], `Cn1cc(C(=O)Nc2ccc(F)cc2-c2ccc(Cl)c(F)c2)c(C(F)F)n1` [Example 1, N-(4′-chloro-3′,5-difluorobiphenyl-2-yl)-3-(difluoromethyl)-1-methyl-1H-pyrazole-4-carboxamide] yielded a chromatographic logP of 3.05.

The values above are taken from patent US8580971B2, “Alkyl-analide producing method” (Bayer CropScience AG, priority 2005, dated 2013).
